The subject of one assay is Staphylococcus aureus. Put plainly: Qualitative dye staining on agarose pads (EVOS M7000). The class given is cell-based. The arrangement: key to Relative fluorescent intensity: Very high: If the cells looked twice as big in the fluorescent channel, it was marked as having “very high” relative fluorescent intensity; High: if the cells looked bigger in the fluorescent channel, it was marked as having “high” relative fluorescent intensity; Medium: If the cells looked almost the same size in the fluorescent channel and the bright field, it was marked as having “medium” relative fluorescent intensity; Low: If the cells looked smaller in the fluorescent channel as compared to the brightfield but still the whole cell was visible, it was marked as having “low” relative fluorescent intensity; Negligible: If only a few traces of a cell was visible in the fluorescent channel, it was marked as having “negligible” relative fluorescent intensity. To be noted: DiSC3(5) 3 μM, SYBR Green I 10×, SYTO 13 3 μM, FM4-64 15 μM. On the procedure: (§1) An overnight culture was prepared by inoculating a bacterial colony in approximately 5 ml of Urine and incubating the culture in an orbital shaker at 37° C.
(§2) The following media and materials were utilised: Cation-adjusted Mueller Hinton broth (MHB); Phosphate Buffered Saline (PBS); Membrane staining dye—FM4-64 (1.5 mM); Live cell staining dye—DiSC3(5) (1 mM); DNA staining dye—SYBR Green (1000×); DNA staining dye—SYTO 13 (0.5 mM); Ultrapure Agarose; Parafilm; Glass slides and coverslips; Scalpel; and EVOS M7000 fluorescent microscope.
(§3) A pre-cut parafilm or a coverslip was used as a guide and 22 mm×22 mm squares cut from parafilm. A square was cut out of the centre of the parafilm (approximately 10 mm×10 mm). The centre of the cut-out was discarded. Two parafilm gaskets were placed onto a cleaned glass slide. The glass slide was then placed on a dry bath set to 56° C. so that the parafilm adhered to the glass slide. The glass slide was then kept on the dry bath. Using a microwave, ultrapure agarose was dissolved in PBS at a concentration of 1.2%. The agarose solution was kept on a dry bath set at 56° C. 60 μl of the agarose solution was pipetted in the centre of the parafilm gaskets. A coverslip was then placed over the gaskets without applying pressure on the coverslip. The slide was then placed on a cool surface and left to solidify for 1-2 minutes. The coverslips were then gently lifted off the agarose pads.
(§4) In a first Eppendorf, 15 μl of FM4-64 and 6 μl of SYTO 13 was added and in a second Eppendorf 10 μl of SYBR Green and 3 μl of DiSC3(5) was added. Depending on the bacterial growth in urine, an appropriate concentration of the bacterial culture was placed in the two Eppendorfs (final bacterial concentration 10^6 CFU/ml). MHB was added so as to achieve a final volume of 1 ml. Final concentrations of the dyes in the sample was as follows: DiSC3(5): 3 μM; SYBR Green I: 10× (originally supplied as 10,000×); SYTO 13: 3 μM; and FM4-64: 15 μM
(§5) 4 μl of the contents of each Eppendorf were deposited on one agarose pad and the cells distributed across the agar surface by tilting the slide. The slide was left to dry for approximately 1 minute. A coverslip was then placed on top of the agarose pad. The slide was placed inside the microscope and incubated at 37° C. for 10 minutes. Using different light filters for each dye, an image of each pad at 40× magnification on an EVOS M7000 fluorescent microscope was captured. Eight images for each agarose pad was recorded (i.e. 8 each for brightfield and 2 fluorescent channels). For each agarose pad, 24 images were recorded. This corresponded to 48 images in total for each bacterial strain (2 agarose pads per strain). Table A below was used to take the images using the correct fluorescent channel and intensity (for imagining on any other instrument, the LED intensity will need to be normalised against the EVOS M7000).
(§6) To qualitatively calculate the relative fluorescent intensities, cell size was compared between brightfield and the fluorescent channel for a given fluorescent dye. If the cells are very fluorescent, they will appear bigger in the fluorescent channel as compared to the bright field. For our qualitative measurements, if the cells looked bigger in the fluorescent channel, it was marked as having “high” relative fluorescent intensity. If the cells looked twice as big in the fluorescent channel, it was marked as having “very high” relative fluorescent intensity. If the cells looked almost the same size in the fluorescent channel and the bright field, it was marked as having “medium” relative fluorescent intensity. If the cells looked smaller in the fluorescent channel as compared to the brightfield but still the whole cell was visible, it was marked as having “low” relative fluorescent intensity. If only a few traces of a cell was visible in the fluorescent channel, it was marked as having “negligible” relative fluorescent intensity.

Another assay has as its system Staphylococcus epidermis. The assay is described as above. To be noted: DiSC3(5) 3 μM, SYBR Green I 10×, SYTO 13 3 μM, FM4-64 15 μM. The arrangement: key to Relative fluorescent intensity: Very high: If the cells looked twice as big in the fluorescent channel, it was marked as having “very high” relative fluorescent intensity; High: if the cells looked bigger in the fluorescent channel, it was marked as having “high” relative fluorescent intensity; Medium: If the cells looked almost the same size in the fluorescent channel and the bright field, it was marked as having “medium” relative fluorescent intensity; Low: If the cells looked smaller in the fluorescent channel as compared to the brightfield but still the whole cell was visible, it was marked as having “low” relative fluorescent intensity; Negligible: If only a few traces of a cell was visible in the fluorescent channel, it was marked as having “negligible” relative fluorescent intensity. The class given is cell-based. On the procedure: as §1, §2, §3, §4, §5, §6

The mark [1] stands for this setting: Table 6 thresholds, Staphylococcus aureus.
Setting [2] is: Table 7 commercial strain S. Aureus NCTC 9369.
The mark [3] stands for this setting: Table 7 commercial strain S. aureus NCTC 8532.
The mark [4] stands for this setting: Table 8 sample Staphylococcus aureus (041).
Where [5] appears, read: Table 8 sample Staphylococcus aureus (042).
Where [6] appears, read: Table 8 sample Staphylococcus aureus (043).
[7] abbreviates: Table 6 thresholds, Staphylococcus epidermis.
Where [8] appears, read: Table 8 sample Staphylococcus epidermis (044).
Where [9] appears, read: Table 8 sample Staphylococcus epidermis (045).
Where [10] appears, read: Table 8 sample Staphylococcus epidermis (046).

Turning to `CCCN1C(=CC=CC=Cc2sc3ccccc3[n+]2CCC)Sc2ccccc21.[I-]` [DiSC3(5), 3,3′-Dipropylthiadicarbocyanine Iodide], the “Percentage of cells stained” value in the assay with Staphylococcus aureus (setting [1]), in the assay on Staphylococcus aureus (setting [2]), in the assay with Staphylococcus aureus (setting [3]), in the assay with Staphylococcus aureus (setting [4]), in the assay on Staphylococcus aureus (setting [5]) and with Staphylococcus aureus (setting [6]) was “Almost all” throughout. Moreover, the “Percentage of cells stained” value in the assay with Staphylococcus epidermis (setting [7]), in the assay on Staphylococcus epidermis (setting [8]), with Staphylococcus epidermis (setting [9]) and with Staphylococcus epidermis (setting [10]) was “Almost all” in each case. In addition, the Relative fluorescent intensity entry is “high and High” with Staphylococcus aureus (setting [1]); “High” with Staphylococcus aureus (setting [2]); “High” in the assay on Staphylococcus aureus (setting [3]); “High” in the assay on Staphylococcus aureus (setting [4]); “High” with Staphylococcus aureus (setting [5]); “High” in the assay on Staphylococcus aureus (setting [6]). In addition, the Relative fluorescent intensity result in the assay on Staphylococcus epidermis (setting [7]), in the assay with Staphylococcus epidermis (setting [8]), with Staphylococcus epidermis (setting [9]) and in the assay on Staphylococcus epidermis (setting [10]) was “Very high” in each case.

Regarding `CCN(CC)c1ccc(C=CC=CC=Cc2cc[n+](CCC[N+](CC)(CC)CC)cc2)cc1.[Br-].[Br-]` [FM 4-64, N-(3-Triethylammoniumpropyl)-4-(6-(4-(Diethylamino) Phenyl) Hexatrienyl) Pyridinium Dibromide], the “Percentage of cells stained” value in the assay on Staphylococcus aureus (setting [1]), in the assay on Staphylococcus aureus (setting [2]), in the assay on Staphylococcus aureus (setting [3]), with Staphylococcus aureus (setting [4]), in the assay with Staphylococcus aureus (setting [5]) and in the assay on Staphylococcus aureus (setting [6]) was “Almost all” in each case. The “Percentage of cells stained” value with Staphylococcus epidermis (setting [7]), in the assay on Staphylococcus epidermis (setting [8]), in the assay with Staphylococcus epidermis (setting [9]) and in the assay with Staphylococcus epidermis (setting [10]) was “Almost all” each time. Besides, the Relative fluorescent intensity entry in the assay on Staphylococcus aureus (setting [1]) was “Medium-high”; in the assay with Staphylococcus aureus (setting [2]), “High”; with Staphylococcus aureus (setting [3]) it was “Medium”; in the assay with Staphylococcus aureus (setting [4]) it was “High”; in the assay on Staphylococcus aureus (setting [5]), “Medium”; in the assay with Staphylococcus aureus (setting [6]), “Medium”. Further, the Relative fluorescent intensity result in the assay with Staphylococcus epidermis (setting [7]), in the assay with Staphylococcus epidermis (setting [8]), in the assay with Staphylococcus epidermis (setting [9]) and in the assay on Staphylococcus epidermis (setting [10]) was “Medium” in each case.

On to `CCCN(CCCN(C)C)c1cc(/C=C2/Sc3ccccc3N2C)c2ccccc2[n+]1-c1ccccc1` [SYBR Green I, N′,N′-dimethyl-N-[4-[(E)-(3-methyl-1,3-benzothiazol-2-ylidene)methyl]-1-phenylquinolin-1-ium-2-yl]-N-propylpropane-1,3-diamine], for which the “Percentage of cells stained” value in the assay with Staphylococcus aureus (setting [1]), in the assay on Staphylococcus aureus (setting [2]), with Staphylococcus aureus (setting [3]), in the assay on Staphylococcus aureus (setting [4]), with Staphylococcus aureus (setting [5]) and with Staphylococcus aureus (setting [6]) was “Almost all” in each case. The “Percentage of cells stained” value with Staphylococcus epidermis (setting [7]), in the assay with Staphylococcus epidermis (setting [8]), in the assay with Staphylococcus epidermis (setting [9]) and with Staphylococcus epidermis (setting [10]) was “Almost all” throughout. For the same molecule, the Relative fluorescent intensity entry was “high” with Staphylococcus aureus (setting [1]); “High” in the assay on Staphylococcus aureus (Table 6 thresholds, Staphylococcus aureus, listed as SYBR Green); “High” in the assay with Staphylococcus aureus (setting [2]); “High” with Staphylococcus aureus (setting [3]); “High” in the assay on Staphylococcus aureus (setting [4]); “High” with Staphylococcus aureus (setting [5]). In addition, the Relative fluorescent intensity entry in the assay with Staphylococcus aureus (setting [6]), in the assay on Staphylococcus epidermis (setting [7]), with Staphylococcus epidermis (setting [8]), in the assay with Staphylococcus epidermis (setting [9]) and in the assay on Staphylococcus epidermis (setting [10]) was “High” throughout.

The values are drawn from patent US20250052744A1, “Dyes and Uses Thereof” (The University of Liverpool, priority 2021, published 2025).
